Assay results reported in patent US9546150B2, “Substituted quinazolin-4-ones for inhibiting ubiquitin specific protease 7” (HYBRIGENICS SA, priority 2011, dated 2017).

Legend:
UCH-L3 = target: T1, UCH-L3 (Homo sapiens, UniProt P15374); experiment: UCH-L3 activity assay, Ub-AMC substrate; type: biochemical; conditions: UbAMC substrate 300 nM, UCH-L3 13 pM
T1 sequence (P15374 1-230): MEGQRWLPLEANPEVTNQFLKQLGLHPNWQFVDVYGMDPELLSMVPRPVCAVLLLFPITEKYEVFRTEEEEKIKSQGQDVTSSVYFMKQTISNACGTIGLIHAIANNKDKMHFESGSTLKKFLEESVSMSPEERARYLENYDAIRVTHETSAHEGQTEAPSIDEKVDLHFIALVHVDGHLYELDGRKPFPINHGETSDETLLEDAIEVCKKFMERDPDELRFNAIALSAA
Method: UCH-L3 was diluted in USP buffer (50 mM Tris HCl; 0.5 mM EDTA; 5 mM DTT; 0.01% Triton X-100; Bovine Serum Albumin 0.05 mg·ml^−1 pH7.6). Compounds stocks (100 mM) were stored at −20° C. in DMSO. Compounds were tested at different concentrations: from 200 μM to 91 nM.
Reactions were performed as duplicates in Black 384 well plates (small volume microplates; Greiner; 10 μl final reaction volume). The substrate concentration for UCH-L3 was 300 nM Ub-AMC (Boston Biochem). The concentration of the enzyme (UCH-L3) in specificity assays was 13 pM. The concentrations were determined in order to perform specificity assays under initial velocities at fixed substrate concentration. Compounds were pre-incubated with enzymes for 30 minutes at 25° C. Reactions were initiated by addition of substrate to the plates containing the enzymes (+/− compounds) diluted in assay buffer. Reactions were incubated for 60 minutes at 37° C. Reactions were stopped by adding acetic acid (100 mM final). Readings were performed on a Pherastar Fluorescent Reader (BMG). λ Emission 380 nm; λ Excitation=460 nm.

USP8 = target: T2, USP8 (Homo sapiens, UniProt P40818); experiment: GST-Ub52-Flag HTRF deubiquitinating enzyme assay, USP8
T2 sequence (P40818 1-1118): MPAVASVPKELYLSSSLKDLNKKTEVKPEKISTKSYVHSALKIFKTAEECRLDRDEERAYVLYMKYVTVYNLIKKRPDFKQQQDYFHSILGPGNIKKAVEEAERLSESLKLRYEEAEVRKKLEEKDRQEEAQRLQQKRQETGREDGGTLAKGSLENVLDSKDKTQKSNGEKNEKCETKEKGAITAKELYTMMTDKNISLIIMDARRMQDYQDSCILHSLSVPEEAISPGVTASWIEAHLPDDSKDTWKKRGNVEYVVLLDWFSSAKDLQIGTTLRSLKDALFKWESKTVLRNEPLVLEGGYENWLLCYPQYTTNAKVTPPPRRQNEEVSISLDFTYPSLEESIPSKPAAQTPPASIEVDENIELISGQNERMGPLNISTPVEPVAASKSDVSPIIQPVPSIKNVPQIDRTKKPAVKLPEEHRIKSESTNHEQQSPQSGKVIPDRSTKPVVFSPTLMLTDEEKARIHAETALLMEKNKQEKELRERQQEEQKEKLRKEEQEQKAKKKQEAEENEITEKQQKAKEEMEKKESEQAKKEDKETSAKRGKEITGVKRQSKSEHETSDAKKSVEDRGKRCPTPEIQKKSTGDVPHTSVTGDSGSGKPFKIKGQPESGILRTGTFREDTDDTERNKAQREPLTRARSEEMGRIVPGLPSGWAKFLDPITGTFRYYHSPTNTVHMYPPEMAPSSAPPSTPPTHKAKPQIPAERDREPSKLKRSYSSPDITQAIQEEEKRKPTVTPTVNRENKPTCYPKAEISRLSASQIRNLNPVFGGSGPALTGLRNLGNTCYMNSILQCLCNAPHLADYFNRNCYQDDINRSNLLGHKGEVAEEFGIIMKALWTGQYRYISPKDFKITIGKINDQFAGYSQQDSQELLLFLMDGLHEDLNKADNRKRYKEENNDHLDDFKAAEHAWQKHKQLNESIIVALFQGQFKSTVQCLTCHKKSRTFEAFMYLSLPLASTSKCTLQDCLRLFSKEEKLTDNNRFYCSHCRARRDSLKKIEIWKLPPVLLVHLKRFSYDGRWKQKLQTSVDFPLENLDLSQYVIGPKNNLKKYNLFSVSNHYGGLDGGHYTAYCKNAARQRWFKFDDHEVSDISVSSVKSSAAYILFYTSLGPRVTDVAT
Excerpt: The cDNA encoding USP8 was obtained by PCR amplification from placenta mRNA. USP8 cDNA was subcloned by PCR into a baculovirus expression vector (pFastBac-HT; Invitrogen). A cDNA encoding a mutated USP8 was generated by mutagenic PCR. […] The sequences were ascertained by sequencing of the entire open reading frame. Bacmids encoding USP8 were generated following DH10bac transposition. The corresponding bacmids were transfected into insect cells (Sf9). Viruses were recovered from culture supernatant and amplified twice. Insect cells (Sf9 or High Five; Invitrogen) were infected for 72 hours. […] Proteins were affinity purified on metal affinity resins (Talon Metal affinity resin; BD Biosciences). Bound materials were extensively washed in wash buffer (50 mM Sodium Phosphate pH 7.0; 300 mM NaCl; 10 mM imidazole; 0.5% Triton X-100; 10% glycerol) and eluted from the resin in 250 mM imidazole-containing wash buffer. Proteins were dialyzed in dialysis buffer (Tris HCl pH 7.6 20 mM; NaCl 200 mM; DTT 1 mM; EDTA 1 mM; 10% Glycerol).
A cDNA encoding the fusion protein between ubiquitin and the ribosomal protein L40 (ub52 or uba52 or ubiquitin-L40) was amplified from human RNA using a proprietary human placenta library. The cDNA was subcloned into a bacterial expression vector (pGEX-2T, GE Healthcare), including an additional flag tag at the carboxyl end of the encoded protein.
For production and purification of recombinant proteins, the plasmid pGEX-2T-Ub52-flag was transformed into E. coli BL21 (Stratagene), grown in LB medium supplemented with 100 mg/ml ampicillin (LB ampi) at 37° C. overnight and then diluted 1/100 in LB ampi. The cells were incubated at 37° C. until an A600=0.6-0.8 was reached. After induction with 0.1 mM isopropyl-β-D-thiogalactopyranoside (IPTG), the culture was incubated at 30° C. for 180 min.
Cells were harvested by centrifugation for 15 min at 7000×g at 4° C. Bacterial pellets were lysed in NETN (Tris HCl pH 8.0; EDTA 1 mM; NP40 0.5%; protease inhibitor cocktail, PMSF 1 mM) and briefly sonicated. Insoluble material was removed by centrifugation 30 min at 14000×g. […] Briefly, soluble fraction was incubated on Glutathione beads pre-equilibrated in NETN buffer+0.5% Milk for 120 min at 4° C. Flow Through was recovered. Beads were extensively washed: the last wash was performed in Tris HCl pH 7.6 20 mM; NaCl 100 mM; MgCl2 12 mM. Elutions were performed using 20 mM Reduced Glutathione in 50 mM Tris HCl pH 8.0, NaCl 120 mM. […] Elutions were dialysed over night at 4° C. in Tris HCl pH 7.6 20 mM; NaCl 50 mM; DTT 0.5 mM.
The use of GST-Ub52-Flag is based on the time-resolved measurement of fluorescence emitted by transfer in homogenous medium.
The assay is carried out on multiwell assay plates. The plates are analyzed on a PHERAstar fluorimeter (BMG) after an overnight incubation at 4° C.
The enzyme reaction is carried out by mixing GST-Ub52-flag solution with 5 μl of USP7 solution (200 pM final) or 5 μl of USP8 (400 pM final). This mixture is incubated for one hour at room temperature on a multiwell assay plate. […] The plate is read after an overnight incubation at 4° C. on a PHERAstar fluorimeter (BMG).
The decrease in the signal correlates with the increase in enzyme activity i.e. the cleavage of GST-Ub52-Flag substrate.
Data (mean values+/−standard deviation) were analyzed as % of control (no compound) and plotted as percentage versus the Log of the compound concentration using GraphPad (Prism).

USP7 = USP7 (Homo sapiens, UniProt Q93009); experiment: GST-Ub52-Flag HTRF deubiquitinating enzyme assay, USP7; type: biochemical; parameters: Full-length wild-type human USP7 and its catalytic mutant; His tag (pFastBac-HT vector) (N); made in house; host or cells: Spodoptera frugiperda Sf9 (or High Five) insect cells, baculovirus; conditions: GST-Ub52-Flag substrate, USP7 200 pM
USP7, sequence (Q93009 whole entry): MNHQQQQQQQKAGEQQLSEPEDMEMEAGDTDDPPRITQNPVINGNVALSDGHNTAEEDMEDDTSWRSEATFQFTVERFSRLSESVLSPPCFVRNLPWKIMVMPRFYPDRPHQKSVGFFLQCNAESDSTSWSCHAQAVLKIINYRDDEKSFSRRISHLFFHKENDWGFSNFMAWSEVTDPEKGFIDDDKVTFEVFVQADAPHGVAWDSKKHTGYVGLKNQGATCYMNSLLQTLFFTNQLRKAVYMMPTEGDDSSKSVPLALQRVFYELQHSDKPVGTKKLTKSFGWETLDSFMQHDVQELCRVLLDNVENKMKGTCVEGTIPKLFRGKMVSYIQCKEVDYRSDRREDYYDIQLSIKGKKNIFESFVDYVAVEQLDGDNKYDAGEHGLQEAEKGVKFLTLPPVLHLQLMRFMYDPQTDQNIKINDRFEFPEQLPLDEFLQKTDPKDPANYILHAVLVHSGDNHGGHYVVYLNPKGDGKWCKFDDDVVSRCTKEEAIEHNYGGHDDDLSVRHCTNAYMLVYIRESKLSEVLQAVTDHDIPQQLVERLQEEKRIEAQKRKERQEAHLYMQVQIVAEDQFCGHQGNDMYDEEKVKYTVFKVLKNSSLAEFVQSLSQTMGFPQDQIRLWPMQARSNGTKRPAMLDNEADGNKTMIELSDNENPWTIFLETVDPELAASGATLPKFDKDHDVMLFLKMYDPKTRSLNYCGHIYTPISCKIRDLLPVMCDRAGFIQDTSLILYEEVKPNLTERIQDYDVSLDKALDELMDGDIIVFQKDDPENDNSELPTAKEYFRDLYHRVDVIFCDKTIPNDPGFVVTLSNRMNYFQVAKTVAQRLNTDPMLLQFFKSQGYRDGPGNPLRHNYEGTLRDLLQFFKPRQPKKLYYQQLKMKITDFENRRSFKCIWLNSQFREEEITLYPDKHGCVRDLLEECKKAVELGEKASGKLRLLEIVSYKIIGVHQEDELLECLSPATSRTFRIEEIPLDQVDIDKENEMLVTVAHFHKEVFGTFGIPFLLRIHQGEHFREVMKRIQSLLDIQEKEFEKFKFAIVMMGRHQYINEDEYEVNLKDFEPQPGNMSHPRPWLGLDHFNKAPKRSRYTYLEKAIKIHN
Method: Bacmid DNA was prepared by an alkaline lysis procedure. The integrity of the bacmid minipreps and their orientation were checked by PCR, using generic and specific primers. Sf9 insect cells were cultured in InsectXpress medium (Cambrex) at 27° C. and transfected with the corresponding bacmid, using GeneShuttle 40 (Q-BIOgen). Viruses were recovered in the supernatant 72 h after transfection. Viruses were amplified by infecting insect cells (Sf9 or High Five cells; invitrogen) in 50 ml InsectXpress medium in a 150 cm^2 cell culture flask with 500 μl of the supernatant from transfected Sf9 cells. Following the second round of amplification, infected cells were recovered by rapid SDS lysis, boiled for 5 min at 100° C., sonicated briefly and centrifuged for 20 min at 14,000 g.
Flow Through was recovered.

O=C(CCc1ccccc1)N1CCC(O)(Cn2cnc3ccccc3c2=O)CC1 [Example 1, 3-{[4-hydroxy-1-(3-phenylpropanoyl)piperidin-4-yl]methyl}-3,4-dihydroquinazolin-4-one]
IC50 (UCH-L3): > 200 µM
IC50 (USP8): > 200 µM
IC50 (USP7): 74 µM

O=C(CCc1ccccc1)N1CCC(O)(Cn2cnc3cc(Cl)ccc3c2=O)CC1 [Example 2, 7-chloro-3-{[4-hydroxy-1-(3-phenylpropanoyl)piperidin-4-yl]methyl}-3,4-dihydroquinazolin-4-one]
IC50 (UCH-L3): > 200 µM
IC50 (USP7): 77 µM

O=C(CCC1CCCC1)N1CCC(O)(Cn2cnc3ccccc3c2=O)CC1 [Example 3, 3-{[1-(3-cyclopentylpropanoyl)-4-hydroxypiperidin-4-yl]methyl}-3,4-dihydroquinazolin-4-one]
IC50 (UCH-L3): > 200 µM
IC50 (USP8): > 200 µM
IC50 (USP7): 175 µM

O=C(CCC1CCCC1)N1CCC(O)(Cn2cnc3cc(Cl)ccc3c2=O)CC1 [Example 4, 7-chloro-3-{[1-(3-cyclopentylpropanoyl)-4-hydroxypiperidin-4-yl]methyl}-3,4-dihydroquinazolin-4-one]
IC50 (UCH-L3): > 200 µM
IC50 (USP8): > 200 µM
IC50 (USP7): 173 µM

CC(Cc1cccs1)C(=O)N1CCC(O)(Cn2cnc3ccccc3c2=O)CC1 (stereo not shown) [Example 5, 3-({4-hydroxy-1-[2-methyl-3-(thiophen-2-yl)propanoyl]piperidin-4-yl}methyl)-3,4-dihydroquinazolin-4-one]
IC50 (UCH-L3): > 200 µM
IC50 (USP8): > 200 µM
IC50 (USP7): 36 µM

CC(C)C(=O)N1CCC(O)(Cn2cnc3ccccc3c2=O)CC1 [Example 6, 3-{[4-hydroxy-1-(2-methylpropanoyl)piperidin-4-yl]methyl}-3,4-dihydroquinazolin-4-one]
IC50 (UCH-L3): > 200 µM
IC50 (USP8): > 200 µM
IC50 (USP7): > 200 µM

COc1cc2ncn(CC3(O)CCN(C(=O)C(C)C)CC3)c(=O)c2cc1OC [Example 7, 3-{[4-hydroxy-1-(2-methylpropanoyl)piperidin-4-yl]methyl}-6,7-dimethoxy-3,4-dihydroquinazolin-4-one]
IC50 (UCH-L3): > 200 µM
IC50 (USP8): > 200 µM
IC50 (USP7): 174 µM

CCC(CC)C(=O)N1CCC(O)(Cn2cnc3cc(Cl)ccc3c2=O)CC1 [Example 9, 7-chloro-3-{[1-(2-ethylbutanoyl)-4-hydroxypiperidin-4-yl]methyl}-3,4-dihydroquinazolin-4-one]
IC50 (UCH-L3): > 200 µM
IC50 (USP8): > 200 µM
IC50 (USP7): 214 µM

COc1ccccc1CCC(=O)N1CCC(O)(Cn2cnc3ccccc3c2=O)CC1 [Example 10, 3-({4-hydroxy-1-[3-(2-methoxyphenyl)propanoyl]piperidin-4-yl}methyl)-3,4-dihydroquinazolin-4-one]
IC50 (UCH-L3): > 200 µM
IC50 (USP8): > 200 µM
IC50 (USP7): > 200 µM

CC(Cc1cccs1)C(=O)N1CCC(O)(Cn2cnc3cc(Cl)ccc3c2=O)CC1 (stereo not shown) [Example 11, 7-chloro-3-({4-hydroxy-1-[2-methyl-3-(thiophen-2-yl)propanoyl]piperidin-4-yl}methyl)-3,4-dihydroquinazolin-4-one]
IC50 (UCH-L3): > 200 µM
IC50 (USP8): > 200 µM
IC50 (USP7): 33 µM

O=C(CCc1cccs1)N1CCC(O)(Cn2cnc3ccccc3c2=O)CC1 [Example 12, 3-({4-hydroxy-1-[3-(thiophen-2-yl)propanoyl]piperidin-4-yl}methyl)-3,4-dihydroquinazolin-4-one]
IC50 (UCH-L3): > 200 µM
IC50 (USP8): > 200 µM
IC50 (USP7): 42 µM

CC(Cc1ccccc1)C(=O)N1CCC(O)(Cn2cnc3ccccc3c2=O)CC1 (stereo not shown) [Example 13, 3-{[1-(2-benzylpropanoyl)-4-hydroxypiperidin-4-yl]methyl}-3,4-dihydroquinazolin-4-one]
IC50 (UCH-L3): > 200 µM
IC50 (USP8): > 200 µM

CC(Cc1ccccc1)C(=O)N1CCC(O)(Cn2cnc3cc(Cl)ccc3c2=O)CC1 (stereo not shown) [Example 14, 3-{[1-(2-benzylpropanoyl)-4-hydroxypiperidin-4-yl]methyl}-7-chloro-3,4-dihydroquinazolin-4-one]
IC50 (UCH-L3): > 200 µM
IC50 (USP8): > 200 µM
IC50 (USP7): 29 µM
